Experimental data reported in the kinase profiling compilation of Christmann-Franck et al. (2016).
Several values for one entry are separate records, joined by “and”; a condition that tells them apart may be missing. Equal entries are not always repeated.

Tests used:
Test in all cases: radiometric filter-binding kinase assay, Kinase HotSpot
Conditions in all cases: compound 0.5 µM; ATP 10 µM
PNCK (human) = PNCK (human) (UniProt Q6P2M8)
CDK7 CCNH MNAT1 (human) = CDK7 CCNH MNAT1 (human) (UniProt P50613+P51948+P51946)
TAOK2 (human) = TAOK2 (human) (UniProt Q9UL54)
NEK3 (human) = NEK3 (human) (UniProt P51956)
MAP3K3 (human) = MAP3K3 (human) (UniProt Q99759)
LYN (human) = LYN (human) (UniProt P07948)
IKBKB (human) = IKBKB (human) (UniProt O14920)
RIPK2 (human) = RIPK2 (human) (UniProt O43353)
ROS1 (human) = ROS1 (human) (UniProt P08922)
ERBB4 (human) = ERBB4 (human) (UniProt Q15303)
MAP2K1 (human) = MAP2K1 (human) (UniProt Q02750)
RPS6KA4 KD2 (human) = RPS6KA4 KD2 (human) (UniProt O75676)
SRPK2 (human) = SRPK2 (human) (UniProt P78362)
Chain of SRPK2 (human) (P78362 whole entry, looked up): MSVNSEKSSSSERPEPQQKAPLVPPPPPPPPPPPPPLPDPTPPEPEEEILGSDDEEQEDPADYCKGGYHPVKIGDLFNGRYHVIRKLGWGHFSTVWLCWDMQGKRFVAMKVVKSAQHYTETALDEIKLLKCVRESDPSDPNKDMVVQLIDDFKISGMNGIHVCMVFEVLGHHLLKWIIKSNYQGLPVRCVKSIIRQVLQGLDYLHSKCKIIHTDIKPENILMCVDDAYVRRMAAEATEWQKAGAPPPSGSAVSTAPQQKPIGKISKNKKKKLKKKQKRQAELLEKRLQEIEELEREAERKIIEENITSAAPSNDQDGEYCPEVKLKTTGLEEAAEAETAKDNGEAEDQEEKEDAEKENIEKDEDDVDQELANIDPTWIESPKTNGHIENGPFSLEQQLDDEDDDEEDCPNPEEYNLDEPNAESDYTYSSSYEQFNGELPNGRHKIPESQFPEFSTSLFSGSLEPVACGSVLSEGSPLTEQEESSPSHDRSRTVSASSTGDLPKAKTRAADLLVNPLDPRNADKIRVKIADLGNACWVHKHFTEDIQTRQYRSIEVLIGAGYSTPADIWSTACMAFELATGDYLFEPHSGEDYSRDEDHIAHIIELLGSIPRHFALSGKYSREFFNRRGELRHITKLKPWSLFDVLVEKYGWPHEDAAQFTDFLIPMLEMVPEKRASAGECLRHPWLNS

TXK (human) = TXK (human) (UniProt P42681)
TEK (human) = TEK (human) (UniProt Q02763)
DDR2 (human) = DDR2 (human) (UniProt Q16832)
ACVR1B (human) = ACVR1B (human) (UniProt P36896)
BMX (human) = BMX (human) (UniProt P51813)
CAMK2G (human) = CAMK2G (human) (UniProt Q13555)
MARK3 (human) = MARK3 (human) (UniProt P27448)
DYRK1B (human) = DYRK1B (human) (UniProt Q9Y463)
MAP3K8 (human) = MAP3K8 (human) (UniProt P41279)
Chain of MAP3K8 (human) (P41279 whole entry, looked up): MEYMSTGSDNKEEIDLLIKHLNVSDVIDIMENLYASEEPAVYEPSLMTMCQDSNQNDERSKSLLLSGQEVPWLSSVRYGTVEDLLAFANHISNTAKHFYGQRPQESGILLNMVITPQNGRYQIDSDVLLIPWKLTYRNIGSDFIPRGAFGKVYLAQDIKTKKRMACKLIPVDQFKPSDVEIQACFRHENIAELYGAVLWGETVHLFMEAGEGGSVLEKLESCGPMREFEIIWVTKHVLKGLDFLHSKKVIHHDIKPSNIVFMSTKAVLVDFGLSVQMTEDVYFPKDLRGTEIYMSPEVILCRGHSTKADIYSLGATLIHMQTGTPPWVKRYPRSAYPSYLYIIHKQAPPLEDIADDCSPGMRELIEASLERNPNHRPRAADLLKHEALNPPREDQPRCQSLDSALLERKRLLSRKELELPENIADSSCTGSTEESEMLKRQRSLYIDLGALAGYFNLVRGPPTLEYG

PLK2 (human) = PLK2 (human) (UniProt Q9NYY3)
EPHA1 (human) = EPHA1 (human) (UniProt P21709)
CSNK2A1 (human) = CSNK2A1 (human) (UniProt P68400)
PRKCG (human) = PRKCG (human) (UniProt P05129)
MAP3K9 (human) = MAP3K9 (human) (UniProt P80192)
ABL1 (human) = ABL1 (human) (UniProt P00519)
NTRK3 (human) = NTRK3 (human) (UniProt Q16288)
Chain of NTRK3 (human) (Q16288 whole entry, looked up): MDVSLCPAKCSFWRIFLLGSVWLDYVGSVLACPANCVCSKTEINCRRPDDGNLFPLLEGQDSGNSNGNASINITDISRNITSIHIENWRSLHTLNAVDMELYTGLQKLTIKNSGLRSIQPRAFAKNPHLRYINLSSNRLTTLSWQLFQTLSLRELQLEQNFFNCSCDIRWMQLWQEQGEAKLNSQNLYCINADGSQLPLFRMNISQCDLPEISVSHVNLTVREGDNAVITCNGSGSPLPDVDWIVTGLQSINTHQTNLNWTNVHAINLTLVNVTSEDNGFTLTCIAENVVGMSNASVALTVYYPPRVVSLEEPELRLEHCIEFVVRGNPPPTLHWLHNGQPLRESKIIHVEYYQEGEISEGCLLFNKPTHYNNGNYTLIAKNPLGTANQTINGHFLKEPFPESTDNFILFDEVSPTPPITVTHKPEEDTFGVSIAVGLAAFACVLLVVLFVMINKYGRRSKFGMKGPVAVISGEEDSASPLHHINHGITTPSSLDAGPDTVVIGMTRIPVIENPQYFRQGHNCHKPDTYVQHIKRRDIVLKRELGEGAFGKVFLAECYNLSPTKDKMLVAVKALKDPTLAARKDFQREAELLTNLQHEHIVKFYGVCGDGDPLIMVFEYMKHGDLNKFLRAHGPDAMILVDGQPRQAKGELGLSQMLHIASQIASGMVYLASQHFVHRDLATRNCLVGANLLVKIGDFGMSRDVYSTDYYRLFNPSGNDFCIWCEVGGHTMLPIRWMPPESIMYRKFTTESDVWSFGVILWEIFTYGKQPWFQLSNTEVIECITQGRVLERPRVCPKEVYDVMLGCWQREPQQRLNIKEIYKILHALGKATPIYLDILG

DYRK3 (human) = DYRK3 (human) (UniProt O43781)
CAMK1G (human) = CAMK1G (human) (UniProt Q96NX5)
CAMKK2 (human) = CAMKK2 (human) (UniProt Q96RR4)
CSK (human) = CSK (human) (UniProt P41240)
RET (human) = RET (human) (UniProt P07949)
TNK2 (human) = TNK2 (human) (UniProt Q07912)
Chain of TNK2 (human) (Q07912 whole entry, looked up): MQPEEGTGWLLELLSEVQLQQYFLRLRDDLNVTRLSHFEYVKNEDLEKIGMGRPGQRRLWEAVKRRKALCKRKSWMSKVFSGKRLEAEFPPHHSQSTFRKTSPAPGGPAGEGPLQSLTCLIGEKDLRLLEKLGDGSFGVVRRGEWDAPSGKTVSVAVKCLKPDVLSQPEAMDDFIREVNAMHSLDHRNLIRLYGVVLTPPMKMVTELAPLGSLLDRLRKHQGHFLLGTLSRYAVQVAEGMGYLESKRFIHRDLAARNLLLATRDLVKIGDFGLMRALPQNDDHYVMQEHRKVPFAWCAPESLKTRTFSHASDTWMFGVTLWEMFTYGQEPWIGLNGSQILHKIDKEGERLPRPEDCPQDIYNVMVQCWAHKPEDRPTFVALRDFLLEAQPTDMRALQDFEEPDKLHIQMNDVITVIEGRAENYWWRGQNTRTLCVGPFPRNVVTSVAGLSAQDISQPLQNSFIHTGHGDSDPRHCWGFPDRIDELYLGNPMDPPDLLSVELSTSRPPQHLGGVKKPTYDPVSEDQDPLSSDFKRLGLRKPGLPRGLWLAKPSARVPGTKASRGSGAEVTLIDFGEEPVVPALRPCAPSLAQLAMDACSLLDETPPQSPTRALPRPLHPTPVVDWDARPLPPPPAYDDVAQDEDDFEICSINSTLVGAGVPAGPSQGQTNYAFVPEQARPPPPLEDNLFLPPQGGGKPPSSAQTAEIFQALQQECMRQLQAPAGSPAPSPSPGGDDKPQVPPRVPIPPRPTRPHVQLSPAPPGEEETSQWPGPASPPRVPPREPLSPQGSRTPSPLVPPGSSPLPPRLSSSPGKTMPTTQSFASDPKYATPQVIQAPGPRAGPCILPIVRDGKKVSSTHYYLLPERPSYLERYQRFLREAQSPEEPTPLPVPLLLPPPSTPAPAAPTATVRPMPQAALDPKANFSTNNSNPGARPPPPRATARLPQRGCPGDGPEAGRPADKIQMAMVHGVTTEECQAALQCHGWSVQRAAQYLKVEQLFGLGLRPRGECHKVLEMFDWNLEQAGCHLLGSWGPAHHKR

PRKD1 (human) = PRKD1 (human) (UniProt Q15139)
Chain of PRKD1 (human) (Q15139 whole entry, looked up): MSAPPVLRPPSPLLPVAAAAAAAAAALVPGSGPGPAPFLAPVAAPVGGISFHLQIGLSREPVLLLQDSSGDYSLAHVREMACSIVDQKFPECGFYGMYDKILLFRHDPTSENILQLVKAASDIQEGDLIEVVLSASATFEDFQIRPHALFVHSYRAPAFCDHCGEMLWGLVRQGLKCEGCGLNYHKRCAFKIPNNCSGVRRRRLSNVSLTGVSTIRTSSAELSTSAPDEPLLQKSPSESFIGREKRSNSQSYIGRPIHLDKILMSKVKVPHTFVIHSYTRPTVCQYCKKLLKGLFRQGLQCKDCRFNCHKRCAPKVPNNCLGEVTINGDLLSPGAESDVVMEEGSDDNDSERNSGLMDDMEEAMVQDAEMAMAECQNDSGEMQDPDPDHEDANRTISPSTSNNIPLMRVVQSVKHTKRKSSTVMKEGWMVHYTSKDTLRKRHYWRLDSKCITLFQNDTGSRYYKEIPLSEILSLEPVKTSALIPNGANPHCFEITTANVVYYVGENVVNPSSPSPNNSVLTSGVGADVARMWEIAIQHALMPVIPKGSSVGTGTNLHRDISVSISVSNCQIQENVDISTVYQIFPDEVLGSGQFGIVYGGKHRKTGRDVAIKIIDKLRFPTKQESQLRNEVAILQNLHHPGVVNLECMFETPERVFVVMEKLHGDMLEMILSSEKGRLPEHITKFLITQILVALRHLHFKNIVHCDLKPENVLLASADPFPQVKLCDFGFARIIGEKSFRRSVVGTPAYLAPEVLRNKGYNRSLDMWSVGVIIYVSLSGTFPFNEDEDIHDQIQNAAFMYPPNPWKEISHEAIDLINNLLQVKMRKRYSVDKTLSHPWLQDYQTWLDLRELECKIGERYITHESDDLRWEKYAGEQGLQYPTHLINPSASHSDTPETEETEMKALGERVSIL

ADRBK2 (human) = ADRBK2 (human) (UniProt P35626)
PBK (human) = PBK (human) (UniProt Q96KB5)
GSG2 (human) = GSG2 (human) (UniProt Q8TF76)
MAP3K10 (human) = MAP3K10 (human) (UniProt Q02779)
DAPK3 (human) = DAPK3 (human) (UniProt O43293)
PDGFRA (human) = PDGFRA (human) (UniProt P16234)
Chain of PDGFRA (human) (P16234 whole entry, looked up): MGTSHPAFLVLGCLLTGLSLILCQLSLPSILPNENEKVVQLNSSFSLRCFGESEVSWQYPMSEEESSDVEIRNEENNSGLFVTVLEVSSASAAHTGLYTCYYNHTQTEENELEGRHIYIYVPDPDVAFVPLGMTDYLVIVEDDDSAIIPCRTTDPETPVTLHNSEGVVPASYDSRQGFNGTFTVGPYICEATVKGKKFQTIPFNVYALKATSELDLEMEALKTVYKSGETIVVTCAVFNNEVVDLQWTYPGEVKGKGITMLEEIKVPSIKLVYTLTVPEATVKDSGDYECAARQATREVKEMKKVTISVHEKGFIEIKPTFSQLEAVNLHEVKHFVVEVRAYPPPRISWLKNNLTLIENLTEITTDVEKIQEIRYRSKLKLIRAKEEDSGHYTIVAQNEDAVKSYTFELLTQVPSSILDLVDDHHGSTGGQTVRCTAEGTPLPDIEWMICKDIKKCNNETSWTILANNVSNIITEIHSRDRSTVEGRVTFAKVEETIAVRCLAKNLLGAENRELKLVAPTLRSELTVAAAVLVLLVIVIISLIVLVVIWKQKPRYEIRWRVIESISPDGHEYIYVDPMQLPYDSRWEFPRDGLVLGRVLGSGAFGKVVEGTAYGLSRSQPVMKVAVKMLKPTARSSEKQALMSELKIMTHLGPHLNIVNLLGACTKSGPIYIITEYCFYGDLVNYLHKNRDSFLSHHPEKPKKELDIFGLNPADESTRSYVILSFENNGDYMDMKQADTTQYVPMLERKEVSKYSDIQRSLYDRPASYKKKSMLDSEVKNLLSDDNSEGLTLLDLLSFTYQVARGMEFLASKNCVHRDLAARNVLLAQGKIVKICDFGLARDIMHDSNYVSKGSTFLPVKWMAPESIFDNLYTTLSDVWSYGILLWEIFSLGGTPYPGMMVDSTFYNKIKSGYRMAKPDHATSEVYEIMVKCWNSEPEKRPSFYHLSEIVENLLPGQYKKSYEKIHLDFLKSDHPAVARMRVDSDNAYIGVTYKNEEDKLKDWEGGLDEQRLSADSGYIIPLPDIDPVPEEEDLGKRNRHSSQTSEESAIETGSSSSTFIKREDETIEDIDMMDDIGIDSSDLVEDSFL

With COc1ccc(S(=O)(=O)N(CCO)c2ccccc2CN(C)C/C=C/c2ccc(Cl)cc2)cc1 the residual activity (PNCK (human)) was 99.8%, the residual activity (CDK7 CCNH MNAT1 (human)) was 97.6% and the residual activity (TAOK2 (human)) was 90.9%. For the same molecule, the residual activity (NEK3 (human)) was 96.2%, the residual activity (MAP3K3 (human)) was 99.8% and the residual activity (LYN (human)) was 92.3% and 96.8%. It also gave a residual activity (IKBKB (human)) of 98.1%, a residual activity (RIPK2 (human)) of 87% and a residual activity (ROS1 (human)) of 95.4%. For the same molecule, the residual activity (ERBB4 (human)) was 104%, the residual activity (MAP2K1 (human)) was 94.3% and the residual activity (RPS6KA4 KD2 (human)) was 107%. The residual activity (SRPK2 (human)) was 98.5%, the residual activity (TXK (human)) was 95.6% and the residual activity (TEK (human)) was 105%. The residual activity (DDR2 (human)) was 96.8%, the residual activity (ACVR1B (human)) was 93.2% and the residual activity (BMX (human)) was 101%. The residual activity (CAMK2G (human)) was 98.6%, the residual activity (MARK3 (human)) was 102% and the residual activity (DYRK1B (human)) was 104%. It also gave a residual activity (MAP3K8 (human)) of 96.3%, a residual activity (PLK2 (human)) of 102% and a residual activity (EPHA1 (human)) of 101%. The residual activity (CSNK2A1 (human)) was 99.5%, the residual activity (PRKCG (human)) was 95.1% and the residual activity (MAP3K9 (human)) was 102%. It also gave a residual activity (ABL1 (human)) of 100%, a residual activity (NTRK3 (human)) of 95.3% and a residual activity (DYRK3 (human)) of 113%. For the same molecule, the residual activity (CAMK1G (human)) was 101%, the residual activity (CAMKK2 (human)) was 90.7% and the residual activity (CSK (human)) was 95.6%. The residual activity (RET (human)) was 103%, the residual activity (TNK2 (human)) was 94.1% and the residual activity (PRKD1 (human)) was 100%. For the same molecule, the residual activity (ADRBK2 (human)) was 105%, the residual activity (PBK (human)) was 95.3% and the residual activity (GSG2 (human)) was 95.3%. The residual activity (MAP3K10 (human)) was 92.4%, the residual activity (DAPK3 (human)) was 101% and the residual activity (PDGFRA (human)) was 102%.

In the case of Cc1nc(-c2ccccc2)c(-c2ccncc2)o1, the residual activity (PNCK (human)) is reported as 96.6%, the residual activity (CDK7 CCNH MNAT1 (human)) is reported as 109% and the residual activity (TAOK2 (human)) is reported as 101%. For the same molecule, the residual activity (NEK3 (human)) was 93.7%, the residual activity (MAP3K3 (human)) was 101% and the residual activity (LYN (human)) was 104% and 97.4%. For the same molecule, the residual activity (IKBKB (human)) was 105%, the residual activity (RIPK2 (human)) was 87.4% and the residual activity (ROS1 (human)) was 96%. For the same molecule, the residual activity (ERBB4 (human)) was 92.2%, the residual activity (MAP2K1 (human)) was 90.7% and the residual activity (RPS6KA4 KD2 (human)) was 93.7%. For the same molecule, the residual activity (SRPK2 (human)) was 92.3%, the residual activity (TXK (human)) was 99.4% and the residual activity (TEK (human)) was 101%. It also gave a residual activity (DDR2 (human)) of 97.4%, a residual activity (ACVR1B (human)) of 99.3% and a residual activity (BMX (human)) of 102%. The residual activity (CAMK2G (human)) was 91.7%, the residual activity (MARK3 (human)) was 107% and the residual activity (DYRK1B (human)) was 98.9%. For the same molecule, the residual activity (MAP3K8 (human)) was 89.9%, the residual activity (PLK2 (human)) was 106% and the residual activity (EPHA1 (human)) was 93.8%. It also gave a residual activity (CSNK2A1 (human)) of 109%, a residual activity (PRKCG (human)) of 101% and a residual activity (MAP3K9 (human)) of 79.4%. For the same molecule, the residual activity (ABL1 (human)) was 100%, the residual activity (NTRK3 (human)) was 105% and the residual activity (DYRK3 (human)) was 105%. The residual activity (CAMK1G (human)) was 92.8%, the residual activity (CAMKK2 (human)) was 105% and the residual activity (CSK (human)) was 107%. It also gave a residual activity (RET (human)) of 97.5%, a residual activity (TNK2 (human)) of 97.7% and a residual activity (PRKD1 (human)) of 95.6%. It also gave a residual activity (ADRBK2 (human)) of 101%, a residual activity (PBK (human)) of 110% and a residual activity (GSG2 (human)) of 87.6%. The residual activity (MAP3K10 (human)) was 101%, the residual activity (DAPK3 (human)) was 101% and the residual activity (PDGFRA (human)) was 96.3%.

Molecule c1ccc2c(-c3ccncc3)c[nH]c2c1 has a residual activity (PNCK (human)) of 98.5%, a residual activity (CDK7 CCNH MNAT1 (human)) of 97% and a residual activity (TAOK2 (human)) of 92.1%. The residual activity (NEK3 (human)) was 91.6%, the residual activity (MAP3K3 (human)) was 103% and the residual activity (LYN (human)) was 100% and 102%. It also gave a residual activity (IKBKB (human)) of 102%, a residual activity (RIPK2 (human)) of 89.9% and a residual activity (ROS1 (human)) of 81.6%. The residual activity (ERBB4 (human)) was 83.7%, the residual activity (MAP2K1 (human)) was 96.5% and the residual activity (RPS6KA4 KD2 (human)) was 91%. For the same molecule, the residual activity (SRPK2 (human)) was 103%, the residual activity (TXK (human)) was 104% and the residual activity (TEK (human)) was 101%. For the same molecule, the residual activity (DDR2 (human)) was 92.6%, the residual activity (ACVR1B (human)) was 98.8% and the residual activity (BMX (human)) was 95.8%. It also gave a residual activity (CAMK2G (human)) of 92.6%, a residual activity (MARK3 (human)) of 98% and a residual activity (DYRK1B (human)) of 90.5%. For the same molecule, the residual activity (MAP3K8 (human)) was 99%, the residual activity (PLK2 (human)) was 99.9% and the residual activity (EPHA1 (human)) was 105%. It also gave a residual activity (CSNK2A1 (human)) of 95%, a residual activity (PRKCG (human)) of 99.4% and a residual activity (MAP3K9 (human)) of 83.3%. It also gave a residual activity (ABL1 (human)) of 98.8%, a residual activity (NTRK3 (human)) of 100% and a residual activity (DYRK3 (human)) of 101%. It also gave a residual activity (CAMK1G (human)) of 99%, a residual activity (CAMKK2 (human)) of 113% and a residual activity (CSK (human)) of 107%. The residual activity (RET (human)) was 97.3%, the residual activity (TNK2 (human)) was 96.1% and the residual activity (PRKD1 (human)) was 95.5%. The residual activity (ADRBK2 (human)) was 95.4%, the residual activity (PBK (human)) was 97.1% and the residual activity (GSG2 (human)) was 62.3%. For the same molecule, the residual activity (MAP3K10 (human)) was 101%, the residual activity (DAPK3 (human)) was 101% and the residual activity (PDGFRA (human)) was 95%.
